Measured values: publication PMC9378504 (Journal of medicinal chemistry, 2022)

How the values were obtained:
GSPT1 [1] = assay: Western blotting of GSPT1 protein level in 293FT cells; format: cell-based; conditions: SI Figure S1A
NSD2 [2] = molecular target: T1, NSD2 (Homo sapiens, UniProt O96028); assay: Western blotting of NSD2 protein level in 293FT cells; format: cell-based; conditions: 293FT cells; for NSD2 degradation: SI Figure S1A
T1 sequence (O96028 1-1365): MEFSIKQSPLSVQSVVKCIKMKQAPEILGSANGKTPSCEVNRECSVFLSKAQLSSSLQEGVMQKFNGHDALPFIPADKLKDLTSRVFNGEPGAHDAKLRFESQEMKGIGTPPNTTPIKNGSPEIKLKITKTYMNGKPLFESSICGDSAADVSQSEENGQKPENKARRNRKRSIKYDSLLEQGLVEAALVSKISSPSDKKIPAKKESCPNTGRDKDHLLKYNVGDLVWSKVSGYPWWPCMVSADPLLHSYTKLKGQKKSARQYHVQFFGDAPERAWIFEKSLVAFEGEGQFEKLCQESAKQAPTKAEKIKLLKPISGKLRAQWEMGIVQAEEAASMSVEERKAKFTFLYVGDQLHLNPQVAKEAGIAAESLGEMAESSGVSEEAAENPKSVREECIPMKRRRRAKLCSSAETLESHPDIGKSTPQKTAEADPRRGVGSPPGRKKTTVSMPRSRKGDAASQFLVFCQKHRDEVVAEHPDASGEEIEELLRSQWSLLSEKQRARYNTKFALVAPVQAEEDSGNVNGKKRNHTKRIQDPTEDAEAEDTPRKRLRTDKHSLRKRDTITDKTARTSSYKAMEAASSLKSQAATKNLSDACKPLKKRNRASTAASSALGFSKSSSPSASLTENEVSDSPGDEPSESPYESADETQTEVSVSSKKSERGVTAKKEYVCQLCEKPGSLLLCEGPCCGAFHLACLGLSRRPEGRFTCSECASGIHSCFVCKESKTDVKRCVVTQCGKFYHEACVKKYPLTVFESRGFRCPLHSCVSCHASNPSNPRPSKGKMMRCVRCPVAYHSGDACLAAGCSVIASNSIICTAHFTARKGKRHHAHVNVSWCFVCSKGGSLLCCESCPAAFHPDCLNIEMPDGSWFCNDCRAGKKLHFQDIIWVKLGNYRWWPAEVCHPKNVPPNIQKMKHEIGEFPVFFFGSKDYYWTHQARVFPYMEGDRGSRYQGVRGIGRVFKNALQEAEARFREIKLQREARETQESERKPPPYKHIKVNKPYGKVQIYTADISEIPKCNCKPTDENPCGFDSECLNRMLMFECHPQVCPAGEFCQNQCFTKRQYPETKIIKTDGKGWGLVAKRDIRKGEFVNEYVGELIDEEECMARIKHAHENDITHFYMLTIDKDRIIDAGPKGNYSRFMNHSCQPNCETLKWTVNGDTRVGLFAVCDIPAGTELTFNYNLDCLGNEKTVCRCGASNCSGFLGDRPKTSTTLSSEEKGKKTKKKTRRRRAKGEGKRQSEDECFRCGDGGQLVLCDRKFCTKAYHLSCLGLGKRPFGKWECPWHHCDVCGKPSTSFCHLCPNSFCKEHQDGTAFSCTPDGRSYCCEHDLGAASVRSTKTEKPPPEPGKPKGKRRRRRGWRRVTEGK

IKZF3 [3] = molecular target: T2, IKZF3 (Homo sapiens, UniProt Q96SW2+Q9UKT9); assay: Western blotting of IKZF3 protein level in 293FT cells; format: cell-based; conditions: 293FT cells, SI Figure S1A
NSD2 [4] = molecular target: T1, NSD2; assay: Western blotting of NSD2 protein level in KMS11 cells; format: cell-based
NSD2 [5] = molecular target: T1, NSD2; assay: Western blotting of NSD2 protein level in H929 cells; format: cell-based
IKZF1 [6] = molecular target: T3, IKZF1 (Homo sapiens, UniProt Q13422+Q96SW2); assay: Western blotting of IKZF1 protein level in KMS11 cells; format: cell-based; conditions: 2.5 μM, 72 h
IKZF3 [7] = molecular target: T2, IKZF3; assay: Western blotting of IKZF3 protein level in KMS11 cells; format: cell-based; conditions: 2.5 μM, 72 h
H929 cells = assay: Cell growth inhibition assay in H929 cells; format: cell-based, Human; conditions: 2.5 μM, 8 days
KMS11 cells = assay: Cell growth inhibition assay in KMS11 cells; format: cell-based, Human; conditions: 2.5 μM, 8 days
IKZF3 [8] = molecular target: T2, IKZF3; assay: Western blotting of IKZF3 protein level in H929 cells; format: cell-based; conditions: 2.5 μM, 72 h
GSPT1 [9] = assay: Western blotting of GSPT1 protein level in KMS11 cells; format: cell-based, Human; conditions: 2.5 μM, 72 h
IKZF1 [10] = molecular target: T3, IKZF1; assay: Western blotting of IKZF1 protein level in H929 cells; format: cell-based; conditions: 2.5 μM, 72 h
GSPT1 [11] = assay: Western blotting of GSPT1 protein level in H929 cells; format: cell-based, Human; conditions: 2.5 μM, 72 h
NSD2-PWWP1 domain = molecular target: T4, NSD2-PWWP1 domain (Homo sapiens, UniProt O96028); assay: Isothermal titration calorimetry; conditions: ITC, inverse titration, 50 mM Tris-HCl pH 6.8, 25 °C; mean ± SD from two independent experiments
T4 sequence (O96028 208-369): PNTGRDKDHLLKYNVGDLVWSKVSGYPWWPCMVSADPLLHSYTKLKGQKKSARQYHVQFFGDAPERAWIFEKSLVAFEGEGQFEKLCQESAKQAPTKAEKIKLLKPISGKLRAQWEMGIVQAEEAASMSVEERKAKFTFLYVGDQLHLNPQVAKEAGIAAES

T3 sequence (Q13422 whole entry): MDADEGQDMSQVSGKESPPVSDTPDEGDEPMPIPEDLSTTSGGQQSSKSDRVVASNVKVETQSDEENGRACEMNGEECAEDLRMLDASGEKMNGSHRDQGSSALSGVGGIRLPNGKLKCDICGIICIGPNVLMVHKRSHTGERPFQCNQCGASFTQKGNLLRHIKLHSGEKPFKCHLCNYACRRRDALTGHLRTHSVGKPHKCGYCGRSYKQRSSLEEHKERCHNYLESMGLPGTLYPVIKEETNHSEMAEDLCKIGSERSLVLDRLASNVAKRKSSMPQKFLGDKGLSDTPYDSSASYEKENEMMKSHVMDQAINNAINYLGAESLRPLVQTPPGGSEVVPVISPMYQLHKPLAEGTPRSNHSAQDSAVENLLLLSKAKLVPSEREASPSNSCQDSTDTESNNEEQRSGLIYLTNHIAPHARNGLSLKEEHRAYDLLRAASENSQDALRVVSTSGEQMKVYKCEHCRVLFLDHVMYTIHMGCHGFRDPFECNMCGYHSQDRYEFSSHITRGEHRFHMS
T3 sequence (Q96SW2 whole entry): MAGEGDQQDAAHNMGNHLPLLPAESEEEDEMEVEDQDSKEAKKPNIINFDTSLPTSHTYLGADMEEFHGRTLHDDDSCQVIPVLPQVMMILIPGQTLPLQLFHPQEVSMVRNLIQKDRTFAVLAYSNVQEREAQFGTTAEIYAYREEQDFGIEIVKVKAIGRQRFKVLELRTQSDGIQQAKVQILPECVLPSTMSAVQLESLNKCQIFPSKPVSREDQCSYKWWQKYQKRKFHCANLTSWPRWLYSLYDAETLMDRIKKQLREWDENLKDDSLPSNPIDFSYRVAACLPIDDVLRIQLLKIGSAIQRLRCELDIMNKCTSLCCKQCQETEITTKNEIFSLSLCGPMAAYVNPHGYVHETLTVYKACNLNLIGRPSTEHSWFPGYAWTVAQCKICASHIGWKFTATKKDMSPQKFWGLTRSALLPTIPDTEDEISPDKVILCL
T3 sequence (Q16531 whole entry partner): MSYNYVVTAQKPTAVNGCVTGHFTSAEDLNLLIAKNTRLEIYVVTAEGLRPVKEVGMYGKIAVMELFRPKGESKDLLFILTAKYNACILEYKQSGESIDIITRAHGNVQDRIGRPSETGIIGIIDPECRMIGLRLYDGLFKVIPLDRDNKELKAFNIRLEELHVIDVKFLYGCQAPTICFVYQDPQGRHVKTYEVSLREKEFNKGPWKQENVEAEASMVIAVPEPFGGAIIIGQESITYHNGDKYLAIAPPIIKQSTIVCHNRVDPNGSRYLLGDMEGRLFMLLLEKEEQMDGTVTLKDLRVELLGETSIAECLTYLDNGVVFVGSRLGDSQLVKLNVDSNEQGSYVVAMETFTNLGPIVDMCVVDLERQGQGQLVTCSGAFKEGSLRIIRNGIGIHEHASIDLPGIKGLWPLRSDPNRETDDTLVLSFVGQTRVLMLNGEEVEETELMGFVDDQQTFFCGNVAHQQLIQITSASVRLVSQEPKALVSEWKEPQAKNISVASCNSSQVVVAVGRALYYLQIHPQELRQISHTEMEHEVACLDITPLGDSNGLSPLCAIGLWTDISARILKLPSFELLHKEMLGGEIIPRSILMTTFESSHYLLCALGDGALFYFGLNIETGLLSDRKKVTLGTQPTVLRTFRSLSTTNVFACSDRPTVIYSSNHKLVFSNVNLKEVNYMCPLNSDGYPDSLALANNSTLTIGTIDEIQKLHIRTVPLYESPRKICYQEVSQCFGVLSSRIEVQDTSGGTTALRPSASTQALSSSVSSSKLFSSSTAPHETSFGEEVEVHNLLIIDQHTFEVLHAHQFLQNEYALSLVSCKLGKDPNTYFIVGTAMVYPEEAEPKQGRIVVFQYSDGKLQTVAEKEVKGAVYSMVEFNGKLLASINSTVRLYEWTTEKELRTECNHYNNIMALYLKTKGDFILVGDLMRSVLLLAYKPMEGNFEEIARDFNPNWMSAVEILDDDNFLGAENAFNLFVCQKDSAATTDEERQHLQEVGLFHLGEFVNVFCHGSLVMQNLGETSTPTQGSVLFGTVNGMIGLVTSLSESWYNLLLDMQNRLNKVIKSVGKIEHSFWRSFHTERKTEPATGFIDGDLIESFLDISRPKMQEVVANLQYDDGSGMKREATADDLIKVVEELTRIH
T2 sequence (Q9UKT9 whole entry): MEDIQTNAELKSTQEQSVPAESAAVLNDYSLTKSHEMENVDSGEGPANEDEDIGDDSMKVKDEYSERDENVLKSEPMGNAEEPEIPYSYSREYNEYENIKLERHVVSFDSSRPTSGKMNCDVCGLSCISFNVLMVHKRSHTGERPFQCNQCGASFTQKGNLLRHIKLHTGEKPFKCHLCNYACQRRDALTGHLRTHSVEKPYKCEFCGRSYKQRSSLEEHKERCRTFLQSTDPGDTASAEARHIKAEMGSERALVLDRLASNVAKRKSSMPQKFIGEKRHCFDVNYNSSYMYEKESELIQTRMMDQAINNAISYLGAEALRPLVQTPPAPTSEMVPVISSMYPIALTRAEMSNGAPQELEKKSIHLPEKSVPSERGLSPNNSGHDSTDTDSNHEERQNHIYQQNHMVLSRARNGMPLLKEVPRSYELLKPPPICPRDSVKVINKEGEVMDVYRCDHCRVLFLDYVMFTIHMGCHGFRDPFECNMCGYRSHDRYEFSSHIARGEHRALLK
T2 sequence (Q96SW2 whole entry): as the sequence (Q96SW2 whole entry) above
T2 sequence (Q16531 whole entry partner): as the sequence (Q16531 whole entry partner) above

| NSD2 degradation (NSD2 [2]; 2.5 μM) | NSD2 degradation (NSD2 [2]; 10 μM) | NSD2 degradation (NSD2 [2]; 0.1 and 0.5 μM) | IKZF3 degradation (IKZF3 [3]) | NSD2 degradation (NSD2 [4]; SI Figure S1B) | NSD2 degradation (NSD2 [5]; SI Figure S1B) | IKZF1 protein level (IKZF1 [6]) | IKZF3 protein level (IKZF3 [7]) | IKZF3 protein level (IKZF3 [8]) | NSD2 degradation (NSD2 [4]; 2.5 μM, 72 h) | NSD2 degradation (NSD2 [5]; 2.5 μM, 72 h) | IKZF1 protein level (IKZF1 [10]) | Kd (NSD2-PWWP1 domain) | SMILES | GSPT1 degradation (GSPT1 [1]) | NSD2 protein level (NSD2 [2]; 2.5 and 10 μM, 48 h, Figure 2) | Cell growth inhibition (H929 cells) | Cell growth inhibition (KMS11 cells) | GSPT1 degradation (GSPT1 [9]) | GSPT1 degradation (GSPT1 [11]) |
| --- | --- | --- | --- | --- | --- | --- | --- | --- | --- | --- | --- | --- | --- | --- | --- | --- | --- | --- | --- |
| confirmed the NSD2 degradation effect | hook affect | did not induce NSD2 degradation | did not degrade GSPT1 or IKZF3 | ineffective in degrading NSD2 | ineffective in degrading NSD2 |  |  |  |  |  |  |  | Cc1ncsc1-c1ccc(CNC(=O)[C@@H]2C[C@@H](O)CN2C(=O)[C@@H](NC(=O)CCOCCOCCNC(=O)c2ccc(NC(=O)c3ccc(CN(C(=O)c4ccc5c(c4)OCC(=O)N5)C4CC4)cc3)cc2)C(C)(C)C)cc1 [Compound 1, N-Cyclopropyl-N-(4-((4-((2-(2-(3-(((S)-1-((2S,4R)-4-hydroxy-2-((4-(4-methylthiazol-5-yl)benzyl)carbamoyl)pyrrolidin-1-yl)-3,3-dimethyl-1-oxobutan-2-yl)amino)-3-oxopropoxy)ethoxy)ethyl)-carbamoyl)phenyl)carbamoyl)benzyl)-3-oxo-3,4-dihydro-2H-benzo[b][1,4]oxazine-7-carboxamide] | did not degrade GSPT1 or IKZF3 | clearly reduced the NSD2 protein level with a slight hook effect at 10μM |  |  |  |  |
|  |  |  |  |  |  | did not display any degradation effect | did not display any degradation effect | did not display any degradation effect | did not induce obvious NSD2 degradation | did not induce obvious NSD2 degradation | did not display any degradation effect |  | CN1C(=O)CCC(N2C(=O)c3cccc(NCC(=O)NCCCOc4ccc(NC(=O)c5ccc(CN(C(=O)c6ccc7c(c6)OCC(=O)N7)C6CC6)cc5)nc4)c3C2=O)C1=O (stereo not shown) [Compound 17, N-Cydopropyl-N-(4-((5-(3-(2-((2-(1-methyl-2,6-dioxopiperidin-3-yl)-1,3-dioxoisoindolin-4-yl)amino)acetamido)propoxy)pyridin-2-yl)carbamoyl)benzyl)-3-oxo-3,4-dihydro-2H-benzo[b][1,4]oxazine-7-carboxamide] |  |  | showed little effect on cell growth inhibition | showed little effect on cell growth inhibition | did not degrade GSPT1 | did not degrade GSPT1 |
|  |  |  |  |  |  | clearly reduced the IKZF1 protein level |  |  | did not induce obvious NSD2 degradation | did not induce obvious NSD2 degradation | clearly reduced the IKZF1 protein level | did not show any appreciable binding | CC(C)N(Cc1ccc(C(=O)Nc2ccc(OCCCNC(=O)CNc3cccc4c3C(=O)N(C3CCC(=O)NC3=O)C4=O)cn2)cc1)C(=O)c1ccc2c(c1)OCC(=O)N2 (stereo not shown) [Compound 18, N-(4-((5-(3-(2-((2-(2,6-Dioxopiperidin-3-yl)-1,3-dioxoisoindolin-4-yl)amino)acetamido)propoxy)pyridin-2-yl)carbamoyl)benzyl)-N-isopropyl-3-oxo-3,4-dihydro-2H-benzo[b][1,4]oxazine-7-carboxamide] |  |  | displayed some growth inhibition | displayed some growth inhibition | did not degrade GSPT1 | did not degrade GSPT1 |
|  |  |  |  |  |  | did not display any degradation effect | did not display any degradation effect | did not display any degradation effect |  |  | did not display any degradation effect |  | O=C1COc2cc(C(=O)N(Cc3ccc(C(=O)Nc4ccncn4)cc3)C3CC3)ccc2N1 [UNC6934, reference compound] |  |  |  |  |  |  |
